Reference: paper PMC7219108, “Pisum sativum Defensin 1 Eradicates Mouse Metastatic Lung Nodules from B16F10 Melanoma Cells” (International Journal of Molecular Sciences, 2020)

How the values were obtained:
[1] = system: B16F10 (murine skin melanoma) cells; experiment: MTT cell viability, B16F10 tumor cells; type: cell-based; settings: 24 h, two independent experiments in triplicate, p < 0.001 vs untreated
[2] = Body weight of mice in the B16F10 metastasis experiment; type: in vivo, mouse; settings: 0.1, 1 and 3 mg/kg Psd1 i.v. with B16F10 cells, 21 days; animals with B16F10 only lost weight
Description: Figure 6 Protective effects of Psd1 on a model of experimental lung metastasis in vivo. B16F10 mouse melanoma tumors were established by intravenous injection of 2.5 × 10^5 B16F10 cells into C57BL/6 mice. (A) After 21 days, mice from each experimental group were sacrificed, and the number of visible lung metastatic nodules was quantified. Treatment of the animals inoculated with melanoma cells plus Psd1 caused a dose-dependent reduction in the number of lung metastases. Black lines represent the mean ± SEM of two independent experiments analyzed by one-way ANOVA and Bonferroni’s multiple comparison test. **** p < 0.0001 B16F10 vs. phosphate buffer solution (PBS); **** p < 0.0001 B16F10 vs. Psd1 1 mg/kg; **** p < 0.0001 B16F10 vs. just Psd1 1 mg/kg (without B16F10 cells); *** p < 0.001 B16F10 vs. Psd1 3 mg/kg; * p < 0.05 B16F10 vs. Psd1 0.5 mg/kg. (B) Representative images of lung metastatic nodules from animals that received just PBS or B16F10 cells alone or together with 0.1 mg/kg or 1 mg/kg Psd1. Bar = 2 mm. (C) Animal weights were acquired every two days. Weight variation was calculated as (weight on that day (weight of the first day × 100 − 100)). Only the days with higher weight differences between animals injected with only B16F10 cells and those that received cells plus Psd1 or PBS alone are represented. […]

C57BL/6 mice = experiment: Toxicity observation in mice given Psd1 alone; type: in vivo
Procedure: Another group of animals received 1 mg/kg of Psd1 only (n = 9) to evaluate Psd1 toxicity. Twenty-one days later, the animals were anaesthetized and sacrificed, and the black lung melanoma nodules were counted and measured under a dissecting microscope (Zeiss AxioPhot fluorescence microscope (Carl-Zeiss, Oberkochen, Germany)).

[3] = system: fungal mutants lacking glucosylceramide synthase; settings: cited from earlier work
B16F10 cells = experiment: Flow cytometry-based apoptosis detection (sub-G0/G1 DNA content); type: cell-based, murine; settings: 50 µM, 24 h, propidium iodide; control Sub-G1 4.4%
Procedure: Figure 2 Psd1 promotes B16F10 live cell membrane permeabilization as monitored by SYTOX Green fluorescence. (A) Psd1 untreated and hydrogen peroxide-treated B16F10 cells. (B) A total of 1.5 × 10^4 B16F10 cells were incubated with 3 or 50 µM Psd1 for 30 min. (C) 1.5 × 10^4 B16F10 cells were incubated with 50 µM Psd1 for 1 h. All experiments were performed at 37 °C. Nucleus staining is shown in green (SYTOXGreen), and mitochondria are shown in red (MitoTracker Red CMXRos). Images are shown at 20× magnification. […] (E) Psd1 induces apoptosis in B16F10 cells. B16F10 cells were treated with 50 µM Psd1 for 24 h and labeled with propidium iodide, and the DNA content was analyzed by flow cytometry for the sub-G0/G1 profile. At least two independent experiments were performed. TEXT PRINTED IN THE PICTURE: (E) Control: Sub-G1: 4.4% | (E) Psd1: Sub-G1: 60.6% (50μM)
B16F10 cells (4 × 10^5 cells) were treated with 50 μM Psd1 for 24 h. After treatment, the cells were trypsinized, centrifuged, and washed twice with phosphate-buffered saline (PBS). The cells were then stained with Nicoletti buffer (0.1% sodium citrate, 0.1% NP-40, 200 μg/mL RNase, and 50 μg/mL propidium iodide). Doublets and debris were identified and excluded. Analysis of the DNA content was performed by collecting 20,000 events using a BD FACSCalibur flow cytometer (BD Biosciences, San Jose, CA, USA). […]

For “Psd1: 46-amino acid residue plant defensin isolated from pea seeds, expressed in Pichia pastoris (PDB 1JKZ) (KTCEHLADTYRGVCFTNASCDDHCKNKAHLISGTCHNWKCFCTQNC)”, the “Reduction of B16F10 cell viability (MTT)” value ([1]; 25 µM) was “approximately 50%”, the “Reduction of B16F10 cell viability (MTT)” value ([1]; 50 µM) was roughly 60% and the Body weight [2] was “gained weight throughout the assay”. The “Inflammation in lung tissue, weight or vital signal losses” value (C57BL/6 mice; 1 mg/kg Psd1 alone, over 21 days) was “did not provoke inflammation in lung tissue or weight or vital signal losses over 21 days”, the “Behavior signals / mortality” value (C57BL/6 mice; Psd1 alone (1 mg/kg i.v.), vs PBS) was “did not present changes in important behavior signals, such as changes in locomotion, piloerection, diarrhea, or mortality” and the “Resistance of mutants to Psd1 antifungal activity and permeabilization” value [3] was “partially resistant”. The “Sub-G0/G1 (sub-G1) cells” value (B16F10 cells) was 60.6%.
